Data set [1] is described as follows: concentration in blood after tail vein injection, ICP-MASS of iridium. The settings on record: mouse, in vivo, BALB/c mice, 100 μL of 500 μM, read-out: elimination half-life in the blood. How it is done:
36 BALB/c mice were equally divided into two groups and injected with 100 μL of Ir-cR8 and Ir-cR8-HSA nanoparticles (500 μM) through tail veins, separately. After 0.5 h, 2 h, 4 h, 8 h, 24 h and 48 h, eyes were removed for blood sampling and centrifuged at 10000 rpm for 10 min. […] of centrifuged serum was added with 1 mL of high chlorine acid and 3 mL of aqua regia, digested at 260° C. for 2 h, and added with water to 10 mL. The content of metal iridium in the blood at each time point was detected by ICP-MASS.

Data set [2] has as its system Human cervical cancer cells, Hela cells. It is filed as cell-based. As to the method:
Human cervical cancer cells, Hela cells, were dispersed with a DMEM medium containing 10% fetal bovine serum and spread to a 96-well plate, 8000 cells per well. After the cells were attached to the walls, Ir-cR5, Ir-cR8 and Ir-aR8 of 2, 4, 8, 16, 32, 64 and 128 μM and the corresponding oligoarginine polypeptides cR5, cR8 and aR8 were added and incubated for 24 h. The cell activity was detected by a thiazole blue method and the half-maximal inhibitory concentration (IC50) was calculated.

Data set [3] has as its target T1, human serum albumin (HSA) (human, UniProt P02768 25-609).
T1 construct: Dissolved in water and used in solution
Briefly: dynamic light scattering of peptide-albumin assembly. As to the method: The detection was performed at 25° C. using the dynamic light scattering apparatus, and only the peaks of the formed polypeptide albumin nanoparticles were calculated.

As usually defined, the half-life is the time needed for the level to fall by half in the phase considered. As usually defined, the IC50 is the concentration at which inhibition is half-maximal.

Like-named read-outs stand apart in the source and are kept apart here. Where a SMILES comes first, the peptide text is derived from it. Some results are limits rather than exact numbers.

T1 sequence (P02768 25-609 limits assumed): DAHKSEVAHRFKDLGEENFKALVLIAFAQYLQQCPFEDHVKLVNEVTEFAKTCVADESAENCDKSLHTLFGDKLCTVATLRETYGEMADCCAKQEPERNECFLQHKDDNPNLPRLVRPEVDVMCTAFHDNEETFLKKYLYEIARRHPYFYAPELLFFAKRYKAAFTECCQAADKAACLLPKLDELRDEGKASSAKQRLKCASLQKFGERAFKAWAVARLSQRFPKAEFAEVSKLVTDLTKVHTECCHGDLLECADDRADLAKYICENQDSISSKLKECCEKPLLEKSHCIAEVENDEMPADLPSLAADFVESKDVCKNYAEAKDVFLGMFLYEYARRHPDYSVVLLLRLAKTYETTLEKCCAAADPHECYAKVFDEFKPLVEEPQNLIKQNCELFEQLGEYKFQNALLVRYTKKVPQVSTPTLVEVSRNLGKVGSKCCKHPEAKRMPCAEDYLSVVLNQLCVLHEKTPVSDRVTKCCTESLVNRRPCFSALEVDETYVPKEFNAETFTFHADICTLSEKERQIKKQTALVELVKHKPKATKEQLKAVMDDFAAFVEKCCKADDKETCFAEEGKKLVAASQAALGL

On to `CC(=O)N[C@@H](Cc1c[nH]cn1)C(=O)N[C@@H](CCCNC(=N)N)C(=O)N[C@@H](CCCNC(=N)N)C(=O)N[C@@H](CCCNC(=N)N)C(=O)N[C@@H](CCCNC(=N)N)C(=O)N[C@@H](CCCNC(=N)N)C(=O)N[C@@H](CCCNC(=N)N)C(=O)N[C@@H](CCCNC(=N)N)C(=O)N[C@@H](CCCNC(=N)N)C(=O)N[C@@H](Cc1c[nH]cn1)C(N)=O` [Ir-cR8] (Ac-HRRRRRRRRH-NH2), for which the half-life in data set [1] is less than 30 min.
Turning to `CC(=O)N[C@@H](Cc1c[nH]cn1)C(=O)N[C@@H](Cc1c[nH]cn1)C(=O)N[C@@H](CCCNC(=N)N)C(=O)N[C@@H](CCCNC(=N)N)C(=O)N[C@@H](CCCNC(=N)N)C(=O)N[C@@H](CCCNC(=N)N)C(=O)N[C@@H](CCCNC(=N)N)C(=O)N[C@@H](CCCNC(=N)N)C(=O)N[C@@H](CCCNC(=N)N)C(=O)N[C@@H](CCCNC(=N)N)C(N)=O` [aR8] (Ac-HHRRRRRRRR-NH2; N-terminus and C-terminus assumed), the 50% inhibitory concentration (IC50) in data set [2] (24 h) was greater than 100 µM.
On the same count and under the same terms, with `CC(=O)NC(Cc1c[nH]cn1)C(=O)NC(CCCNC(=N)N)C(=O)NC(CCCNC(=N)N)C(=O)NC(CCCNC(=N)N)C(=O)NC(CCCNC(=N)N)C(=O)NC(CCCNC(=N)N)C(=O)NC(Cc1c[nH]cn1)C(N)=O` (centres unmarked) [cR5] (Ac-HRRRRRH-NH2; configuration not given here) the figure was greater than 100 µM.
On to `CC(=O)NC(Cc1c[nH]cn1)C(=O)NC(CCCNC(=N)N)C(=O)NC(CCCNC(=N)N)C(=O)NC(CCCNC(=N)N)C(=O)NC(CCCNC(=N)N)C(=O)NC(CCCNC(=N)N)C(=O)NC(CCCNC(=N)N)C(=O)NC(CCCNC(=N)N)C(=O)NC(CCCNC(=N)N)C(=O)NC(Cc1c[nH]cn1)C(N)=O` (centres unmarked) [cR8] (Ac-HRRRRRRRRH-NH2; configuration not given here), for which the IC50 in data set [2] (Hela cells, incubated for 24 h, read-out: IC50) is greater than 100 µM.
For Ac-KKKKHHKKKK-NH2 (also: coordinated with iridium complex from [Ir(ppy)2(H2O)2]OTf (1:1), also called Formula VII) [iridium-coordinated oligopolypeptide (Ir-mK8)], the binding result in data set [3] was “binds”.
Regarding cholesterol-RRRRRRRR-NH2 [chol-RRRRRRRR (SEQ ID NO: 2)-CONH2 (CR)], the binding result in data set [3] is given as “binds”.
Same read-out and setting: with Ac-FWLFLRRRRRRRR-NH2 [CH3CO-FWLFLRRRRRRRR (SEQ ID NO: 1)-CONH2 (FR)] the entry was “binds”.
Still for that read-out and setting: next, Ac-HKKKKKKKKH-NH2 (also: coordinated with iridium complex from [Ir(ppy)2(H2O)2]OTf (1:1), also called Formula VIII) [iridium-coordinated oligopolypeptide (Ir-cK8)]: “binds”.

Source of the values: US20240261365A1, “POLYPEPTIDE ALBUMIN NANOPARTICLE, PREPARATION METHOD THEREFOR, AND APPLICATION THEREOF” (SUZHOU INSTITUTE OF NANO-TECH AND NANO-BIONICS (SINANO) , …, priority 2020, published 2024).
